The test relates to KPC1 PDAC cells. The experiment in a line: qRT-PCR of senescence and SASP gene expression in KPC1 PDAC cells with EZH2 methyltransferase inhibitors. The settings on record: GSK126 1 μM or tazemetostat 5 μM with trametinib 25 nM and palbociclib 500 nM, 8 days. The format is cell-based, mouse. As for the experimental part:
P values in b-c were calculated using two-tailed, unpaired Student's t-test.
Trametinib (S2673), palbociclib (S1116), and GSK126 (S7061) were purchased from Selleck chemicals for in vitro studies. Drugs for in vitro studies were dissolved in DMSO (vehicle) to yield 10 mM stock solutions and stored at −80° C. For in vitro studies, growth media with or without drugs was changed every 2-3 days.
Total RNA was isolated using the RNeasy Mini Kit (Qiagen), and complementary DNA (cDNA) was obtained using the TaqMan reverse transcription reagents (Applied Biosystems).
Flow cytometry was performed on a BD LSR II, and data were analyzed using FlowJo (TreeStar).
For orientation: Quantitative PCR measures a nucleic acid by following its amplification.

SMILES strings stand for the structures.

With `CC[C@H](C)n1cc(C)c2c(C(=O)NCc3c(C)cc(C)[nH]c3=O)cc(-c3ccc(N4CCNCC4)nc3)cc21` [GSK126], the “Pro-inflammatory SASP factors and immunomodulatory cell surface proteins” value was “induced pro-inflammatory SASP factors and immunomodulatory cell surface proteins”; the “Senescence-associated cell cycle arrest” value is “without impacting senescence-associated cell cycle arrest”.

For the origin of these results see US20240390379A1, “EZH2 Inhibition in Pancreatic Cancer” (University of Massachusetts, priority 2021, published 2024).
